Source: US20240182445A1 (ONO PHARMACEUTICAL CO., LTD., priority 2019, published 2024)

molecular target: T1, human TREK-1 (Homo sapiens, UniProt O95069); test: TREK-1 Thallium (Tl+) flux assay, Method 1; format: cell-based; conditions: TREK-1 Thallium (Tl+) flux assay, Method 1
T1 construct: expressed in transfected cells
T1 sequence (O95069 1-426): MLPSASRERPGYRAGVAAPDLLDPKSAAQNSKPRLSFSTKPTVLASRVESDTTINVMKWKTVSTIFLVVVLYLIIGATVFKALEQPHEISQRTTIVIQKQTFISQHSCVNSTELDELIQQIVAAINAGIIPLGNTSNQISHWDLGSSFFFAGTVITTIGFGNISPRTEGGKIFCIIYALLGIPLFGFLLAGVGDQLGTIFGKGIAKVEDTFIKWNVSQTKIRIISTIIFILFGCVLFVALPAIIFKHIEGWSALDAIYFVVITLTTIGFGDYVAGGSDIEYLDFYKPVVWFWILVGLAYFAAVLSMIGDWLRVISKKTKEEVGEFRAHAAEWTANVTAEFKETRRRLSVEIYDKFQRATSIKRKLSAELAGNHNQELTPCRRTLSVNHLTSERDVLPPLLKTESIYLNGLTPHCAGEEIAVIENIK
Outline: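 Readout: Thallos fluorescence ratio, taken 25 s post-thallium relative to the pre-thallium baseline average, then converted to % inhibition. Cells were CHO-K1 stably expressing human TREK-1, dye-loaded and exposed to test compound (vehicle 0.3% DMSO) for 10 min prior to thallium stimulation.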

Row | IC50 | SMILES
1 | 4190 nM | COc1ncc(-c2cnc(NC(=O)c3c(Cl)cnn3C3CCN(C(=O)OC(C)(C)C)CC3)c(C)c2)cn1 [Compound 419, tert-butyl 4-(4-chloro-5-((5-(2-methoxypyrimidin-5-yl)-3-methylpyridin-2-yl)carbamoyl)-1H-pyrazol-1-yl)piperidine-1-carboxylate]
2 | 4170 nM | CC(=O)N1CCC(n2ncc(Cl)c2C(=O)Nc2ncc(-c3ccc(CC(C)C)cc3)cc2C)CC1 [Compound 418, 1-(1-acetylpiperidin-4-yl)-4-chloro-N-(5-(4-isobutylphenyl)-3-methylpyridin-2-yl)-1H-pyrazole-5-carboxamide]

same assay, conditions: TREK-1 Thallium (Tl+) flux assay; no *^12 (Method 2) mark on these rows

Row | IC50 | SMILES
3 | 820 nM | Cc1cc(C#Cc2ccc(F)cc2)cnc1NC(=O)c1c(Cl)cnn1CC1CCN(C(=O)C(C)C)CC1(F)F (stereo not shown) [Compound 350, 4-chloro-1-((3,3-difluoro-1-isobutyrylpiperidin-4-yl)methyl)-N-(5-((4-fluorophenyl)ethynyl)-3-methylpyridin-2-yl)-1H-pyrazole-5-carboxamide]
4 | 340 nM | O=C(Nc1ncc(C#Cc2ccccc2)cc1F)c1c(Cl)cnn1CC1CCOC1 (stereo not shown) [Compound 217, 4-chloro-N-(3-fluoro-5-(phenylethynyl)pyridin-2-yl)-1-((tetrahydrofuran-3-yl)methyl)-1H-pyrazole-5-carboxamide]
5 | 600 nM | Cc1cc(-c2cnn(-c3ccc(F)cc3)c2)cnc1NC(=O)c1c(Cl)cnn1C1CCOCC1 [Compound 381, 4-chloro-N-(5-(1-(4-fluorophenyl)-1H-pyrazol-4-yl)-3-methylpyridin-2-yl)-1-(tetrahydro-2H-pyran-4-yl)-1H-pyrazole-5-carboxamide]
6 | 310 nM | Cc1cc(C#Cc2ccccc2)cnc1NC(=O)c1c(Cl)cnn1[C@H]1C[C@@H](NC(=O)C(C)C)C1 [Compound 207, 4-chloro-1-(cis-3-isobutyramidocyclobutyl)-N-(3-methyl-5-(phenylethynyl)pyridin-2-yl)-1H-pyrazole-5-carboxamide]
7 | 650 nM | Cc1cc(C#Cc2ccccc2)cnc1NC(=O)c1c(Cl)cnn1[C@H]1C[C@@H]2CN(C(=O)OC(C)(C)C)C[C@@H]2C1 [Compound 329, tert-butyl (3aR,5s,6aS)-5-(4-chloro-5-{[3-methyl-5-(phenylethynyl)pyridin-2-yl]carbamoyl}-1H-pyrazol-1-yl)hexahydrocyclopenta[c]pyrrole-2(1H)-carboxylate]
8 | 610 nM | Cc1cc(C#Cc2ccccc2)cnc1NC(=O)c1c(Cl)cnn1[C@H]1C[C@@H]2CN(C(=O)C(C)C)C[C@@H]2C1 [Compound 317, 4-chloro-N-[3-methyl-5-(phenylethynyl)pyridin-2-yl]-1-[(3aR,5s,6aS)-2-(2-methylpropanoyl)octahydrocyclopenta [c]pyrrol-5-yl]-1H-pyrazole-5-carboxamide]
9 | 1210 nM | COc1ccc(-c2cnc(NC(=O)c3c(Cl)cnn3C3CCN(C(=O)OC(C)(C)C)CC3)c(C)c2)cc1C(C)C [Compound 390, tert-butyl 4-(4-chloro-5-((5-(3-isopropyl-4-methoxyphenyl)-3-methylpyridin-2-yl)carbamoyl)-1H-pyrazol-1-yl)piperidine-1-carboxylate]

same assay, conditions: TREK-1 Thallium (Tl+) flux assay; values without footnote *12 are Method 1

Row | IC50 | SMILES
10 | 290 nM | Cc1cc(C#Cc2ccccc2)cc(F)c1NC(=O)c1c(Cl)cnn1CCCC#N [Compound 185, 4-chloro-1-(3-cyanopropyl)-N-(2-fluoro-6-methyl-4-(phenylethynyl)phenyl)-1H-pyrazole-5-carboxamide]
11 | 170 nM | CC(=O)N1CC[C@@H](Cn2ncc(Cl)c2C(=O)Nc2ncc(C#Cc3ccccc3)cc2F)[C@@H](F)C1 [Compound 88, 1-(((3R,4S)-1-acetyl-3-fluoropiperidin-4-yl)methyl)-4-chloro-N-(3-fluoro-5-(phenylethynyl)pyridin-2-yl)-1H-pyrazole-5-carboxamide]
12 | 140 nM | O=C(Nc1ncc(C#Cc2ccccc2)cc1F)c1c(Cl)cnn1C1CCN(C(=O)C(F)(F)F)CC1 [Compound 54, 4-chloro-N-(3-fluoro-5-(phenylethynyl)pyridin-2-yl)-1-(1-(2,2,2-trifluoroacetyl)piperidin-4-yl)-1H-pyrazole-5-carboxamide]
13 | 180 nM | Cc1cc(C#Cc2ccc(F)cc2)cnc1NC(=O)c1c(Cl)cnn1CCN1CCN(C(=O)C2CC2)CC1 [Compound 96, 4-chloro-1-(2-(4-(cyclopropanecarbonyl)piperazin-1-yl)ethyl)-N-(5-((4-fluorophenyl)ethynyl)-3-methylpyridin-2-yl)-1H-pyrazole-5-carboxamide]
14 | 230 nM | CC(C)C(=O)N1CCC(CCn2ncc(Cl)c2C(=O)Nc2ncc(C#Cc3ccccc3)cc2F)CC1 [Compound 144, 4-chloro-N-(3-fluoro-5-(phenylethynyl)pyridin-2-yl)-1-(2-(1-isobutyrylpiperidin-4-yl)ethyl)-1H-pyrazole-5-carboxamide]
15 | 150 nM | Cc1cc(C#Cc2ccc(F)cc2)cnc1NC(=O)c1c(Cl)cnn1C1CCN(C(=O)C2COCCO2)CC1 (stereo not shown) [Compound 65, 1-(1-(1,4-dioxane-2-carbonyl)piperidin-4-yl)-4-chloro-N-(5-((4-fluorophenyl)ethynyl)-3-methylpyridin-2-yl)-1H-pyrazole-5-carboxamide]
16 | 190 nM | Cc1cc(C#Cc2cccs2)cnc1NC(=O)c1c(Cl)cnn1CC1CCN(C(=O)C2COCCO2)CC1 (stereo not shown) [Compound 103, 1-((1-(1,4-dioxane-2-carbonyl)piperidin-4-yl)methyl)-4-chloro-N-(3-methyl-5-(thiophen-2-ylethynyl)pyridin-2-yl)-1H-pyrazole-5-carboxamide]
17 | 270 nM | Cc1cc(C#Cc2ccccc2)cnc1NC(=O)c1c(Cl)cnn1C1CCN(C(=O)CC(F)(F)F)CC1 [Compound 171, 4-chloro-N-(3-methyl-5-(phenylethynyl)pyridin-2-yl)-1-(1-(3,3,3-trifluoropropanoyl)piperidin-4-yl)-1H-pyrazole-5-carboxamide]
18 | 210 nM | CC(=O)N1CC(n2ncc(Cl)c2C(=O)Nc2ncc(C#Cc3ccccc3)cc2C)C1 [Compound 122, 1-(1-acetylazetidin-3-yl)-4-chloro-N-(3-methyl-5-(phenylethynyl)pyridin-2-yl)-1H-pyrazole-5-carboxamide]
19 | 190 nM | CCC(=O)N1CCC(n2ncc(Cl)c2C(=O)Nc2ncc(C#Cc3ccccc3)cc2C)C1 (stereo not shown) [Compound 106, 4-chloro-N-(3-methyl-5-(phenylethynyl)pyridin-2-yl)-1-(1-propionylpyrrolidin-3-yl)-1H-pyrazole-5-carboxamide]
20 | 110 nM | Cc1cc(C#Cc2cccs2)cnc1NC(=O)c1c(Cl)cnn1C1CC2(C1)CN(C(=O)C1CC1)C2 [Compound 36, 4-chloro-1-(2-(cyclopropanecarbonyl)-2-azaspiro[3.3]heptan-6-yl)-N-(3-methyl-5-(thiophen-2-ylethynyl)pyridin-2-yl)-1H-pyrazole 5-carboxamide]
21 | 220 nM | Cc1cc(C#Cc2ccccc2)cnc1NC(=O)c1c(Cl)cnn1C1CCN(C(=O)C(C)C)C1 (stereo not shown) [Compound 136, 4-chloro-1-(1-isobutyrylpyrrolidin-3-yl)-N-(3-methyl-5-(phenylethynyl)pyridin-2-yl)-1H-pyrazole-5-carboxamide]

same assay, conditions: read-out: Tl^+ Assay % inhibition at 30 uM (Minus value indicates activation of TREK-1); at 30 uM; CHO-K1 cells stably expressing human TREK-1; minus = activation

Row | inhibition at 30 µM | SMILES
22 | -116% | Cc1cc(C#Cc2ccccc2)cnc1NC(=O)c1nn(CC2CCOCC2)cc1Cl [Compound 444, 4-chloro-N-(3-methyl-5-(phenylethynyl)pyridin-2-yl)-1-((tetrahydro-2H-pyran-4-yl)methyl)-1H-pyrazole-3-carboxamide]
